Measurements from US20250270180A1, “MEK INHIBITORS AND THERAPEUTIC USES THEREOF” (Immuneering Corporation, priority 2020, published 2025).

System: A549 pERK
Assay: A549-pERK, 2 h (quantitative Western, Jess)
Type: cell-based
Conditions: Homo sapiens, phospho:total ratio normalized to DMSO control
Procedure: A549 or […] cells were treated in duplicate for two hours with compounds at varying concentrations. After two hours, the cells were lysed, snap frozen, and stored at −80° C. After storage, the lysate was quantified with the Bradford assay. Before the lysates were prepared to run on the Jess, the lysates were diluted to 1 mg/mL for pERK analysis and 1.5 mg/mL pMEK analysis using quantitative Western blotting. ERK and MEK phosphorylation levels were estimated by taking the ratio of phospho-protein to total protein and normalizing to the DMSO control. The results of this study are described in Tables 14-16.

SMILES | activity at 0.01 µM (A549, 2 h, 10 nM) [%] | activity at 10 µM (A549, 2 h) [%] | activity at 0.01 µM (A549, 10 nM) [%]
CNS(=O)(=O)Nc1cccc(Cc2c(CNCC3CC3)c3ccc(OC(=O)N(C)C)cc3oc2=O)c1F [Compound 26] | 94.2 | – | –
CNS(=O)(=O)Nc1cccc(Cc2c(CNCc3ccncc3)c3ccc(OC(=O)N(C)C)cc3oc2=O)c1F [Compound 29] | 96 | – | –
CNS(=O)(=O)Nc1cccc(Cc2c(CNc3ccccc3)c3ccc(OC(=O)N(C)C)cc3oc2=O)c1F [Compound 30] | 54.3 | – | –
CNS(=O)(=O)Nc1cccc(Cc2c(CNc3ccn[nH]3)c3ccc(OC(=O)N(C)C)cc3oc2=O)c1F [Compound 31] | 66.7 | – | –
CNS(=O)(=O)Nc1cccc(Cc2c(CNCc3ccco3)c3ccc(OC(=O)N(C)C)cc3oc2=O)c1F [Compound 56] | 92.9 | – | –
CNS(=O)(=O)Nc1cccc(Cc2c(CNCC(=O)N(C)C)c3ccc(OC(=O)N(C)C)cc3oc2=O)c1F [Compound 57] | 106 | 7.33 | –
CNS(=O)(=O)Nc1cccc(Cc2c(CNCCN(C)C)c3ccc(OC(=O)N(C)C)cc3oc2=O)c1F [Compound 58] | 98.7 | – | –
CNS(=O)(=O)Nc1cccc(Cc2c(CNCc3cccc(C(F)(F)F)c3)c3ccc(OC(=O)N(C)C)cc3oc2=O)c1F [Compound 59] | 105 | – | –
CNS(=O)(=O)Nc1cccc(Cc2c(CN3CCN(C(C)C)CC3)c3ccc(OC(=O)N(C)C)cc3oc2=O)c1F [Compound 62] | 73 | – | –
CNS(=O)(=O)Nc1cccc(Cc2c(CNC(C)c3ccccc3)c3ccc(OC(=O)N(C)C)cc3oc2=O)c1F (centres unmarked) [Compound 63] | 88 | – | –
CNS(=O)(=O)Nc1cccc(Cc2c(CN3CCN(C4CC4)CC3)c3ccc(OC(=O)N(C)C)cc3oc2=O)c1F [Compound 64] | 73 | – | –
CNS(=O)(=O)Nc1cccc(Cc2c(CN3CCN(C(=O)c4ccccc4)CC3)c3ccc(OC(=O)N(C)C)cc3oc2=O)c1F [Compound 65] | 100 | – | –
CNS(=O)(=O)Nc1cccc(Cc2c(CNCCC(F)(F)F)c3ccc(OC(=O)N(C)C)cc3oc2=O)c1F [Compound 66] | 104 | – | –
CNS(=O)(=O)Nc1cccc(Cc2c(CN3CCN(S(C)(=O)=O)CC3)c3ccc(OC(=O)N(C)C)cc3oc2=O)c1F [Compound 68] | 68.9 | – | –
CCN1CCN(Cc2c(Cc3cccc(NS(=O)(=O)NC)c3F)c(=O)oc3cc(OC(=O)N(C)C)ccc23)CC1=O [Compound 69] | 101 | – | –
CNS(=O)(=O)Nc1cccc(Cc2c(CNCCCCO)c3ccc(OC(=O)N(C)C)cc3oc2=O)c1F [Compound 71] | 99.4 | – | –
C#CCN(C)Cc1c(Cc2cccc(NS(=O)(=O)NC)c2F)c(=O)oc2cc(OC(=O)N(C)C)ccc12 [Compound 76] | 62.1 | – | –
CNS(=O)(=O)Nc1cccc(Cc2c(CNc3ccn(C)n3)c3ccc(OC(=O)N(C)C)cc3oc2=O)c1F [Compound 89] | 83.7 | – | –
CNS(=O)(=O)Nc1cccc(Cc2c(CNc3cn[nH]c3)c3ccc(OC(=O)N(C)C)cc3oc2=O)c1F [Compound 92] | 93.8 | – | –
CNS(=O)(=O)Nc1cccc(Cc2c(CNc3nccs3)c3ccc(OC(=O)N(C)C)cc3oc2=O)c1F [Compound 94] | 93.5 | – | –
CNS(=O)(=O)Nc1cccc(Cc2c(CN(C)c3cccc(Cl)c3)c3ccc(OC(=O)N(C)C)cc3oc2=O)c1F [Compound 95] | 80.2 | – | –
CNS(=O)(=O)Nc1cccc(Cc2c(CNc3ccnn3C)c3ccc(OC(=O)N(C)C)cc3oc2=O)c1F [Compound 96] | 102 | – | –
CNS(=O)(=O)Nc1cccc(Cc2c(CN(C)c3ccccc3Cl)c3ccc(OC(=O)N(C)C)cc3oc2=O)c1F [Compound 99] | 98.9 | – | –
CNS(=O)(=O)Nc1nccc(Cc2c(CN3CCNCC3)c3ccc(Oc4ncccn4)cc3oc2=O)c1F [Compound 104] | – | – | 77.3

SMILES | activity at 0.01 µM (A549, 2 h, 10 nM) [%] | activity at 10 µM (A549, 2 h) [%] | activity at 0.01 µM (A549, 10 nM) [%]
CNS(=O)(=O)Nc1cccc(Cc2c(CNC(N)=O)c3ccc(OC(=O)N(C)C)cc3oc2=O)c1F [Compound 105] | – | 7.39 | –
CCS(=O)(=O)Nc1cccc(Cc2c(CN(C)C)c3ccc(OC(=O)N(C)C)cc3oc2=O)c1F [Compound 120] | 77.2 | – | –
CNS(=O)(=O)Nc1nccc(Cc2c(CN(C)C)c3ccc(OC(=O)N(C)C)cc3oc2=O)c1F [Compound 124] | 94.6 | – | –
CNS(=O)(=O)Nc1cccc(Cc2c(CN(C)C)c3ccc(OC(=O)N4CCN(C)CC4)cc3oc2=O)c1F [Compound 127] | 110 | – | –
CNS(=O)(=O)Nc1cccc(Cc2c(CN(C)C)c3ccc(Oc4ncccn4)cc3oc2=O)c1F [Compound 129] | – | – | 92.2
CNS(=O)(=O)Nc1cccc(Cc2c(CNCC(=O)O)c3cc(Cl)c(OC(=O)N(C)C)cc3oc2=O)c1F [Compound 133] | 88.1 | 23.4 | –
CNS(=O)(=O)Nc1cccc(Cc2c(CN3CC4CC3CN4)c3ccc(OC(=O)N(C)C)cc3oc2=O)c1F (centres unmarked) [Compound 138] | 96.9 | – | –
CNS(=O)(=O)Nc1cccc(Cc2c(CN3CC(C)C3)c3ccc(OC(=O)N(C)C)cc3oc2=O)c1F [Compound 142] | 94.6 | – | –
CNS(=O)(=O)Nc1cccc(Cc2c(CN3CC(C)(C)C3)c3ccc(OC(=O)N(C)C)cc3oc2=O)c1F [Compound 143] | 104 | – | –
CNS(=O)(=O)Nc1cccc(Cc2c(CN3CC(Cl)C3)c3ccc(OC(=O)N(C)C)cc3oc2=O)c1F [Compound 145] | 104 | – | –
CNS(=O)(=O)Nc1nccc(Cc2c(CN3CC(F)(F)C3)c3ccc(OC(=O)N(C)C)cc3oc2=O)c1F [Compound 149] | 69.1 | – | –
CNS(=O)(=O)Nc1cccc(Cc2c(CN3CC4(COC4)C3)c3ccc(OC(=O)N(C)C)cc3oc2=O)c1F [Compound 152] | 70.5 | – | –
CNS(=O)(=O)Nc1cccc(Cc2c(CN3CC(N(C)C)C3)c3ccc(OC(=O)N(C)C)cc3oc2=O)c1F [Compound 154] | 64 | – | –
CN(C)C(=O)Oc1ccc2c(CN3CCC3)c(Cc3ccnc(NS(=O)(=O)C4CC4)c3F)c(=O)oc2c1 [Compound 155] | 84.9 | – | –
CNS(=O)(=O)Nc1cccc(Cc2c(CN3CCNC(=O)CC3)c3ccc(OC(=O)N(C)C)cc3oc2=O)c1F [Compound 158] | 80 | – | –
CNS(=O)(=O)Nc1cccc(Cc2c(CN3CCC4(CN(C)C4)C3)c3ccc(OC(=O)N(C)C)cc3oc2=O)c1F [Compound 159] | 82.7 | – | –
CNC1CN(Cc2c(Cc3cccc(NS(=O)(=O)NC)c3F)c(=O)oc3cc(OC(=O)N(C)C)ccc23)C1 [Compound 164] | 102 | – | –
CNS(=O)(=O)Nc1cccc(Cc2c(CN3CC(N)C3)c3ccc(OC(=O)N(C)C)cc3oc2=O)c1F [Compound 165] | 104 | – | –
CCN(C)Cc1c(Cc2cccc(NS(=O)(=O)CC)c2F)c(=O)oc2cc(OC(=O)N(C)C)c(Cl)cc12 [Compound 166] | 60.9 | – | –
CNS(=O)(=O)Nc1cccc(Cc2c(CN3CC(C#N)C3)c3ccc(OC(=O)N(C)C)cc3oc2=O)c1F [Compound 172] | 111 | – | –
CNS(=O)(=O)Nc1cccc(Cc2c(CN3CC(C(N)=O)C3)c3ccc(OC(=O)N(C)C)cc3oc2=O)c1F [Compound 173] | 97.7 | – | –
CNS(=O)(=O)Nc1cccc(Cc2c(CO)c3ccc(OC(=O)N(C)C)cc3oc2=O)c1F [Compound 180] | 75 | – | –
CNS(=O)(=O)Nc1cccc(Cc2c(CN3CCOCC3=O)c3ccc(OC(=O)N(C)C)cc3oc2=O)c1F [Compound 181] | 100 | 22.2 | –
